The values that follow are results of earlier work, collected in article PMC11213733, “Computational approaches identify a transcriptomic fingerprint of drug-induced structural cardiotoxicity” (Cell Biology and Toxicology, 2024).

This data set concerns hiPS-CMs. Details: method as in Harmer et al., 2012. The settings on record: 10 µM; ref Harmer et al., 2012; cited from earlier work.

In the case of `COc1ccc(CCN(C)CCCC(C#N)(c2ccc(OC)c(OC)c2)C(C)C)cc1OC` (stereo not shown) [verapamil], the “inhibition of calcium transient signal in cardiomyocytes” value is reported as “inhibit almost all of the calcium transient signal”.
